According to ChEMBL document CHEMBL3856212, “Synthesis, anti-proliferative and genotoxicity studies of 6-chloro-5-(2-substituted-ethyl)-1,3-dihydro-2H-indol-2-ones and 6-chloro-5-(2-chloroethyl)-3-(alkyl/ary-2-ylidene)indolin-2-ones” (Eur J Med Chem, 2016):

Tests used:
Type in all cases: functional
[1] = Cytotoxicity against human NCI-H226 cells assessed as assessed as growth inhibition at 10^-5 M after 48 hrs by SRB assay relative to control; details: NCI-H226, 48 h, read-out: GI
[2] = Cytotoxicity against human OVCAR5 cells assessed as assessed as growth inhibition at 10^-5 M after 48 hrs by SRB assay relative to control; details: OVCAR-5, 48 h, read-out: GI
[3] = Cytotoxicity against human PC3 cells assessed as assessed as growth inhibition at 10^-5 M after 48 hrs by SRB assay relative to control; details: PC-3, 48 h, read-out: GI
[4] = Cytotoxicity against human SF295 cells assessed as assessed as growth inhibition at 10^-5 M after 48 hrs by SRB assay relative to control; details: SF-295, 48 h, read-out: GI
[5] = Cytotoxicity against human COLO205 cells assessed as growth inhibition after 48 hrs by SRB assay; details: COLO 205, 48 h; for CC50: read-out: LD50 (the source's name)
[6] = Cytotoxicity against human SR cells assessed as growth inhibition after 48 hrs by SRB assay; details: for CC50: read-out: LD50 (the source's name)
[7] = Cytotoxicity against human MDA-MB-468 cells assessed as assessed as growth inhibition at 10^-5 M after 48 hrs by SRB assay relative to control; details: MDA-MB-468, 48 h, read-out: GI
[8] = Cytotoxicity against human HL-60(TB) cells assessed as growth inhibition after 48 hrs by SRB assay; details: HL-60, 48 h; for CC50: read-out: LD50 (the source's name)
[9] = Cytotoxicity against human RPMI8226 cells assessed as growth inhibition after 48 hrs by SRB assay; details: RPMI-8226, 48 h; for CC50: read-out: LD50 (the source's name)
[10] = Cytotoxicity against human NCI-H522 cells assessed as assessed as growth inhibition at 10^-5 M after 48 hrs by SRB assay relative to control; details: NCI-H522, 48 h, read-out: GI
[11] = Cytotoxicity against human MCF7 cells assessed as assessed as growth inhibition at 10^-5 M after 48 hrs by SRB assay relative to control; details: MCF7, 48 h, read-out: GI
[12] = Cytotoxicity against human HCC2998 cells assessed as assessed as growth inhibition at 10^-5 M after 48 hrs by SRB assay relative to control; details: HCC 2998, 48 h, read-out: GI
[13] = Cytotoxicity against human PC3 cells assessed as growth inhibition after 48 hrs by SRB assay; details: PC-3, 48 h; for CC50: read-out: LD50 (the source's name)
[14] = Cytotoxicity against human HOP62 cells assessed as growth inhibition after 48 hrs by SRB assay; details: HOP-62, 48 h; for CC50: read-out: LD50 (the source's name)
[15] = Cytotoxicity against human SNB19 cells assessed as growth inhibition after 48 hrs by SRB assay; details: SNB-19, 48 h; for CC50: read-out: LD50 (the source's name)
[16] = Cytotoxicity against human SNB19 cells assessed as assessed as growth inhibition at 10^-5 M after 48 hrs by SRB assay relative to control; details: SNB-19, 48 h, read-out: GI
[17] = Cytotoxicity against human NCI-H23 cells assessed as growth inhibition after 48 hrs by SRB assay; details: NCI-H23, 48 h; for CC50: read-out: LD50 (the source's name)
[18] = Cytotoxicity against human SF268 cells assessed as assessed as growth inhibition at 10^-5 M after 48 hrs by SRB assay relative to control; details: SF-268, 48 h, read-out: GI
[19] = Cytotoxicity against human SF539 cells assessed as growth inhibition after 48 hrs by SRB assay; details: SF-539, 48 h; for CC50: read-out: LD50 (the source's name)
[20] = Cytotoxicity against human RXF393 cells assessed as assessed as growth inhibition at 10^-5 M after 48 hrs by SRB assay relative to control; details: RXF 393, 48 h, read-out: GI
[21] = Cytotoxicity against human A498 cells assessed as growth inhibition after 48 hrs by SRB assay; details: A498, 48 h; for CC50: read-out: LD50 (the source's name)
[22] = Cytotoxicity against human EKVX cells assessed as assessed as growth inhibition at 10^-5 M after 48 hrs by SRB assay relative to control; details: read-out: GI
[23] = Cytotoxicity against human U251 cells assessed as growth inhibition after 48 hrs by SRB assay; details: U-251, 48 h; for CC50: read-out: LD50 (the source's name)
[24] = Cytotoxicity against human SKOV3 cells assessed as assessed as growth inhibition at 10^-5 M after 48 hrs by SRB assay relative to control; details: SK-OV-3, 48 h, read-out: GI
[25] = Cytotoxicity against human UACC62 cells assessed as assessed as growth inhibition at 10^-5 M after 48 hrs by SRB assay relative to control; details: UACC-62, 48 h, read-out: GI
[26] = Cytotoxicity against human HOP62 cells assessed as assessed as growth inhibition at 10^-5 M after 48 hrs by SRB assay relative to control; details: HOP-62, 48 h, read-out: GI
[27] = Cytotoxicity against human UO31 cells assessed as assessed as growth inhibition at 10^-5 M after 48 hrs by SRB assay relative to control; details: UO-31, 48 h, read-out: GI
[28] = Cytotoxicity against human T47D cells assessed as growth inhibition after 48 hrs by SRB assay; details: for CC50: read-out: LD50 (the source's name)
[29] = Cytotoxicity against human SW620 cells assessed as growth inhibition after 48 hrs by SRB assay; details: SW-620, 48 h; for CC50: read-out: LD50 (the source's name)
[30] = Cytotoxicity against human Caki1 cells assessed as growth inhibition after 48 hrs by SRB assay; details: CAKI-1, 48 h; for CC50: read-out: LD50 (the source's name)
[31] = Cytotoxicity against human HCT116 cells assessed as assessed as growth inhibition at 10^-5 M after 48 hrs by SRB assay relative to control; details: HCT-116, 48 h, read-out: GI
[32] = Cytotoxicity against human A549 cells assessed as growth inhibition after 48 hrs by SRB assay; details: A549, 48 h; for CC50: read-out: LD50 (the source's name)
[33] = Cytotoxicity against human HCT15 cells assessed as growth inhibition after 48 hrs by SRB assay; details: HCT-15, 48 h; for CC50: read-out: LD50 (the source's name)

O=C1Cc2cc(CCn3ccnc3)c(Cl)cc2N1
inhibition of growth at 10 µM [1]: 10.7% | inhibition of growth at 10 µM [2]: 18.9% | inhibition of growth at 10 µM [3]: 11.7% | inhibition of growth at 10 µM [4]: 36.6% | GI50 [5]: 1510 nM | TGI [5]: > 1000 nM | CC50 [5]: > 1000 nM | GI50 [6]: 9240 nM | TGI [6]: > 1000 nM | CC50 [6]: > 1000 nM | inhibition of growth at 10 µM [7]: 69.2% | GI50 [8]: 6320 nM | TGI [8]: > 1000 nM | CC50 [8]: > 1000 nM | GI50 [9]: 4610 nM | TGI [9]: > 1000 nM | CC50 [9]: > 1000 nM | inhibition of growth at 10 µM [10]: 55.2% | inhibition of growth at 10 µM [11]: 77.1% | inhibition of growth at 10 µM [12]: 28.5% | GI50 [13]: 3560 nM | TGI [13]: > 1000 nM | CC50 [13]: > 1000 nM | GI50 [14]: 3320 nM | TGI [14]: > 1000 nM | CC50 [14]: > 1000 nM | GI50 [15]: 2210 nM | TGI [15]: > 1000 nM | CC50 [15]: > 1000 nM | inhibition of growth at 10 µM [16]: 28.5% | GI50 [17]: 4080 nM | TGI [17]: > 1000 nM | CC50 [17]: > 1000 nM | inhibition of growth at 10 µM [18]: 27.6% | GI50 [19]: 6000 nM | TGI [19]: > 1000 nM | CC50 [19]: > 1000 nM | inhibition of growth at 10 µM [20]: 42% | GI50 [21]: 2190 nM | TGI [21]: 6110 nM | CC50 [21]: > 1000 nM | inhibition of growth at 10 µM [22]: 72.7% | GI50 [23]: 8240 nM | TGI [23]: > 1000 nM | CC50 [23]: > 1000 nM | inhibition of growth at 10 µM [24]: 21.4% | inhibition of growth at 10 µM [25]: 29.8% | inhibition of growth at 10 µM [26]: 33.1% | inhibition of growth at 10 µM [27]: 39.3% | GI50 [28]: 7560 nM | TGI [28]: > 1000 nM | CC50 [28]: > 1000 nM | GI50 [29]: 5020 nM | TGI [29]: > 1000 nM | CC50 [29]: > 1000 nM | GI50 [30]: 6320 nM | TGI [30]: > 1000 nM | CC50 [30]: > 1000 nM | inhibition of growth at 10 µM [31]: 28% | GI50 [32]: 7630 nM | TGI [32]: > 1000 nM | CC50 [32]: > 1000 nM | GI50 [33]: 7070 nM | TGI [33]: > 1000 nM | CC50 [33]: > 1000 nM

O=C1Cc2cc(CCN3CCNCC3)c(Cl)cc2N1
inhibition of growth at 10 µM [1]: 19.4% | inhibition of growth at 10 µM [2]: 34.7% | inhibition of growth at 10 µM [3]: 16.5% | inhibition of growth at 10 µM [4]: 46.4% | GI50 [5]: 1970 nM | TGI [5]: > 1000 nM | CC50 [5]: > 1000 nM | GI50 [6]: 6200 nM | TGI [6]: > 1000 nM | CC50 [6]: > 1000 nM | inhibition of growth at 10 µM [7]: 89% | GI50 [8]: 4300 nM | TGI [8]: > 1000 nM | CC50 [8]: > 1000 nM | GI50 [9]: 6030 nM | TGI [9]: > 1000 nM | CC50 [9]: > 1000 nM | inhibition of growth at 10 µM [10]: 73.6% | inhibition of growth at 10 µM [11]: 74.9% | inhibition of growth at 10 µM [12]: 24.3% | GI50 [13]: 9830 nM | TGI [13]: > 1000 nM | CC50 [13]: > 1000 nM | GI50 [14]: 1930 nM | TGI [14]: > 1000 nM | CC50 [14]: > 1000 nM | GI50 [15]: 2370 nM | TGI [15]: > 1000 nM | CC50 [15]: > 1000 nM | inhibition of growth at 10 µM [16]: 42.4% | GI50 [17]: 4640 nM | TGI [17]: > 1000 nM | CC50 [17]: > 1000 nM | inhibition of growth at 10 µM [18]: 27.9% | GI50 [19]: 1000 nM | TGI [19]: > 1000 nM | CC50 [19]: > 1000 nM | inhibition of growth at 10 µM [20]: 60.1% | GI50 [21]: 2850 nM | TGI [21]: > 1000 nM | CC50 [21]: > 1000 nM | inhibition of growth at 10 µM [22]: 75.2% | GI50 [23]: 7790 nM | TGI [23]: > 1000 nM | CC50 [23]: > 1000 nM | inhibition of growth at 10 µM [24]: 33.2% | inhibition of growth at 10 µM [25]: 44.8% | inhibition of growth at 10 µM [26]: 43.7% | inhibition of growth at 10 µM [27]: 36.8% | GI50 [28]: 2910 nM | TGI [28]: > 1000 nM | CC50 [28]: > 1000 nM | GI50 [29]: 4970 nM | TGI [29]: > 1000 nM | CC50 [29]: > 1000 nM | GI50 [30]: 6110 nM | TGI [30]: > 1000 nM | CC50 [30]: > 1000 nM | inhibition of growth at 10 µM [31]: 34.8% | GI50 [32]: 6850 nM | TGI [32]: > 1000 nM | CC50 [32]: > 1000 nM | GI50 [33]: 6230 nM | TGI [33]: > 1000 nM | CC50 [33]: > 1000 nM
